Here are results for six compounds from article PMC7168151, “Brevinin-2GHk from Sylvirana guentheri and the Design of Truncated Analogs Exhibiting the Enhancement of Antimicrobial Activity” (Antibiotics, 2020).

In brackets after ≈: the same amount, converted by molar mass. Where a SMILES comes first, the peptide text is derived from it. Where no end group is shown, it is not given here.

The test system of series [1] is Enterococcus faecalis (NCTC12697). Format: cell-based. The method, then: (§1) The antimicrobial activity of synthetic peptides was determined using the minimal inhibitory concentration (MIC) and the minimal bactericidal concentration […] performed by the microdilution method in a 96 well plate. Gram-positive bacteria, Staphylococcus aureus (NCTC 10788), methicillin-resistant Staphylococcus aureus (MRSA, NCTC 12493), Enterococcus faecalis (NCTC12697), and Gram-negative bacteria, Escherichia coli (NCTC 10418), Pseudomonas aeruginosa (ATCC 27853), Klebsiella pneumoniae (ATCC 43816) and the pathogenic yeast Candida albicans (NCYC 1467). All bacteria were cultured in MHB and C. albicans was cultured in YPD broth. Norfloxacin and amphotericin B were used as positive controls for bacteria and yeast, respectively.

Series [2] deals with Staphylococcus aureus (NCTC 10788). Format: cell-based. As for the experimental part: as §1
Series [3] concerns methicillin-resistant Staphylococcus aureus (MRSA, NCTC 12493). It counts as cell-based. As for the experimental part: as §1
Series [4] has as its system Candida albicans (NCYC 1467). It counts as cell-based. The method, then:
as §1

Series [5] deals with Pseudomonas aeruginosa (ATCC 27853). Format: cell-based. The method, then:
as §1

For series [6], the system named is Klebsiella pneumoniae (ATCC 43816). Format: cell-based. As for the experimental part: as §1
Series [7] deals with Escherichia coli (NCTC 10418). It counts as cell-based. As for the experimental part:
as §1

In the next series the test system is HMEC-1 cells. Conditions: for drop in cell viability of HMEC-1 cells: 100 µM.

Procedure for HMEC-1 cells: The cytotoxicity of BR2GK and its derivatives were determined by hemolysis assay and MTT assay on the dermal microvascular endothelium cell line, HMEC-1 (ATCC CRL-3243).
MTT assays were conducted as outlined previously [35]. Ten thousand cells were seeded in each well of a 96-well plate. Cells were treated with different peptide concentrations for 24 h. Triton (0.1%) X-100 was used as a positive control.
Procedure for horse erythrocytes: Horse erythrocytes (TCS Biosciences Ltd., Buckingham, UK) were subjected to the hemolysis of all synthetic peptides as described previously [35]. Briefly, the erythrocytes were washed and resuspended by PBS to achieve a 4% suspension. The test peptide solutions were transferred into the aforementioned suspension and kept at a constant 37 °C for 2 h, while Triton X-100 (Sigma-Aldrich, St. Louis, MO, USA) was employed to replace the peptide solution for establishing the positive control. The supernatants after incubation were measured at 470 nm.

Take “GFSSLFKAGAKYLLKQVGKAGAQQL-NH2 [BR2GK(1-25)a]”: in series [1], the “MBC E. faecalis” value came to 16 µM and the “MIC E. faecalis” value was 4 µM. Besides, in series [2], the “MBC S. aureus” value was determined as 8 µM and the “MIC S. aureus” value is reported as 4 µM. For the same compound, in [3], the “MBC MRSA” value was 16 µM and the “MIC MRSA” value amounted to 4 µM. In [4], the “MBC C. albicans” value came out at 16 µM and the “MIC C. albicans” value came to 4 µM. Further, in series [5], the “MBC P. aeruginosa” value was 32 µM and the “MIC P. aeruginosa” value stood at 8 µM. In [6], the “MBC K. pneumoniae” value was 32 µM and the “MIC K. pneumoniae” value stood at 16 µM. In series [7], the “MBC E. coli” value is listed as 8 µM and the “MIC E. coli” value is listed as 4 µM. The “hemolysis of horse erythrocytes at 256 µM” value in the series with horse erythrocytes is “around 20%”. The “drop in cell viability of HMEC-1 cells” value with HMEC-1 cells is given as “around 15%”.
As to “GFSSLFKAGAKYLAKQVGKAGAQQL-NH2 [[A^14]BR2GK(1-25)a]”, in [1], the “MBC E. faecalis” value came to 16 µM and the “MIC E. faecalis” value was 8 µM. Further, in series [2], the “MBC S. aureus” value turned out to be 16 µM and the “MIC S. aureus” value came out at 8 µM. In addition, in series [3], the “MBC MRSA” value is reported as 64 µM and the “MIC MRSA” value is listed as 16 µM. Besides, in series [4], the “MBC C. albicans” value is listed as 32 µM and the “MIC C. albicans” value is listed as 16 µM. In series [5], the “MBC P. aeruginosa” value was found to be 128 µM and the “MIC P. aeruginosa” value was 32 µM. For the same compound, in [6], the “MBC K. pneumoniae” value is on record as 256 µM and the “MIC K. pneumoniae” value was found to be 128 µM. Also, in series [7], the “MBC E. coli” value is listed as 32 µM and the “MIC E. coli” value stood at 8 µM.
As to “GFSSLFKAGAKYLKKQVGKAGAQQL-NH2 [[K^14]BR2GK(1-25)a]”, in series [1], the “MBC E. faecalis” value was determined as 64 µM and the “MIC E. faecalis” value was determined as 16 µM. For the same compound, in [2], the “MBC S. aureus” value stood at 32 µM and the “MIC S. aureus” value is on record as 16 µM. Also, in [3], the “MBC MRSA” value is on record as 128 µM and the “MIC MRSA” value came to 64 µM. In addition, in series [4], the “MBC C. albicans” value is on record as 128 µM and the “MIC C. albicans” value is listed as 64 µM. Besides, in series [5], the “MBC P. aeruginosa” value turned out to be 64 µM and the “MIC P. aeruginosa” value is 16 µM. In addition, in series [6], the “MBC K. pneumoniae” value is listed as 256 µM and the “MIC K. pneumoniae” value is 128 µM. Moreover, in series [7], the “MBC E. coli” value amounted to 32 µM and the “MIC E. coli” value is recorded as 8 µM. Besides, the “drop in cell viability of HMEC-1 cells” value in the series on HMEC-1 cells is “around 15%”.
Turning to `CC(C)C[C@H](NC(=O)[C@H](CCC(N)=O)NC(=O)[C@H](CCC(N)=O)NC(=O)[C@H](C)NC(=O)CNC(=O)[C@H](C)NC(=O)[C@H](CCCCN)NC(=O)CNC(=O)[C@@H](NC(=O)[C@H](CCC(N)=O)NC(=O)[C@H](CCCCN)NC(=O)[C@H](CC(C)C)NC(=O)[C@H](CC(C)C)NC(=O)[C@H](Cc1ccc(O)cc1)NC(=O)[C@H](CCCCN)NC(=O)[C@H](C)NC(=O)CNC(=O)[C@H](C)NC(=O)[C@H](CCCCN)NC(=O)[C@H](Cc1ccccc1)NC(=O)[C@H](CC(C)C)NC(=O)[C@H](CO)NC(=O)[C@H](CO)NC(=O)[C@H](Cc1ccccc1)NC(=O)CN)C(C)C)C(=O)N[C@@H](C)C(=O)N[C@H]1CSSC[C@@H](C(=O)O)NC(=O)[C@H](CC(N)=O)NC(=O)[C@H](CC(N)=O)NC(=O)[C@H](C)NC(=O)[C@H](C)NC(=O)[C@H](CCCCN)NC1=O` [BR2GK] (HELM PEPTIDE1{G.F.S.S.L.F.K.A.G.A.K.Y.L.L.K.Q.V.G.K.A.G.A.Q.Q.L.A.C.K.A.A.N.N.C}$PEPTIDE1,PEPTIDE1,27:R3-33:R3$$$V2.0), in [1], the “MBC E. faecalis” value is given as 256 µM (≈ 867 µg/mL) and the “MIC E. faecalis” value came out at 64 µM (≈ 217 µg/mL). Besides, in [2], the “MBC S. aureus” value stood at 256 µM (≈ 867 µg/mL) and the “MIC S. aureus” value is recorded as 64 µM (≈ 217 µg/mL). Further, in [4], the “MIC C. albicans” value is on record as 256 µM (≈ 867 µg/mL). Also, the “MIC P. aeruginosa” value in [5] is reported as over 512 µM. The “hemolysis of horse erythrocytes at 256 µM” value in the series with horse erythrocytes is “more than 40%”. Further, the “cytotoxicity on HMEC-1 cells at 100 µM” value in the series on HMEC-1 cells is “significant cytotoxicity”.
As to “GFSSLFKAGAKYLRKQVGKAGAQQL-NH2 [[R^14]BR2GK(1-25)a]”, in series [1], the “MBC E. faecalis” value was found to be 32 µM and the “MIC E. faecalis” value is 16 µM. In series [2], the “MBC S. aureus” value is given as 32 µM and the “MIC S. aureus” value turned out to be 16 µM. In [3], the “MBC MRSA” value was determined as 128 µM and the “MIC MRSA” value is 64 µM. Also, in series [4], the “MBC C. albicans” value is 128 µM and the “MIC C. albicans” value was 64 µM. For the same compound, in series [5], the “MBC P. aeruginosa” value was determined as 32 µM and the “MIC P. aeruginosa” value is on record as 16 µM. Also, in series [6], the “MBC K. pneumoniae” value worked out at 256 µM and the “MIC K. pneumoniae” value was 128 µM. For the same compound, in [7], the “MBC E. coli” value amounted to 16 µM and the “MIC E. coli” value worked out at 8 µM. Moreover, in the series with HMEC-1 cells, the “drop in cell viability of HMEC-1 cells” value is “around 15%”.
In series [2], “GFSSLFKAGAKYLPKQVGKAGAQQL-NH2 [[P^14]BR2GK(1-25)a]” gave an MBC S. aureus of over 512 µM and an MIC S. aureus of 512 µM. In series [3], this compound yielded an MBC MRSA of over 512 µM and an MIC MRSA of over 512 µM. For the same compound, in series [5], the MBC P. aeruginosa is over 512 µM and the MIC P. aeruginosa was over 512 µM. In series [6], this compound had an MBC K. pneumoniae of over 512 µM and an MIC K. pneumoniae of over 512 µM. In series [7], this compound gave an MBC E. coli of over 512 µM and an MIC E. coli of over 512 µM.
